Measured values as given in US20240425464A1, “Substituted Monohydrazides as Potent Antifungal Agents” (University of Kentucky Research Foundation, priority 2023, published 2024).
Values after ≈ are worked out from the molar mass of the structure shown. Where two headings read alike, the source gives them in different places.

What was measured:
Experiment in all cases: MIC determination by in vitro antifungal assay
Type in all cases: cell-based
[1] = tested on: Candida krusei ATCC 6258 (I)
Summary of the method: (§1)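 Broth microdilution following CLSI M27-A3/M38-A2 with modifications, in RPMI 1640 buffered to pH 7.0 with 0.165 M MOPS. Yeast inoculum adjusted to OD600 0.12 and diluted 1:100. Compounds tested at 0.06–31.3 μg/mL by double dilution; incubation 48 h at 35° C.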

[2] = tested on: Candida glabrata ATCC 2001 (H); details: ATCC 2001 in text
Summary of the method: as §1

[3] = tested on: Candida parapsilosis ATCC 22019 (J)
Summary of the method: as §1

[4] = tested on: Aspergillus flavus ATCC MYA-3631 (O); details: strain O = A. flavus ATCC MYA-3631
Summary of the method: (§2)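 Fungi are exposed to compounds (0.06-31.3 μg/mL, double dilution) in RPMI 1640 adjusted to pH 7.0 with MOPS. Incubation runs 48 h at 35° C, based on CLSI M27-A3/M38-A2. Yeast suspensions start at ˜1×10^6 CFU/mL and are diluted 1:100.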

[5] = tested on: Aspergillus nidulans ATCC 38163 (P)
Summary of the method: as §2

[6] = tested on: Aspergillus terreus ATCC MYA-3633 (N); details: strain N = A. terreus ATCC MYA-3633
Summary of the method: as §2

[7] = tested on: Cryptococcus neoformans ATCC MYA-895 (M)
Summary of the method: as §1

[8] = strain H = C. glabrata ATCC 2004 (footnote)
[9] = strain J = C. parapsilosis ATCC 22019
[10] = strain P = A. nidulans ATCC 38163
[11] = strain M = C. neoformans ATCC MYA-895
[12] = Pichia kudriavzevii, ATCC6258, strain I = C. krusei ATCC 6258, read-out: MIC
[13] = Nakaseomyces glabratus, ATCC 2001 / ATCC 2004, strain H = C. glabrata ATCC 2004 (footnote), read-out: MIC
[14] = Lodderomyces parapsilosis, ATCC22019, strain J = C. parapsilosis ATCC 22019, read-out: MIC
[15] = Aspergillus flavus, read-out: MIC
[16] = Aspergillus nidulans, ATCC38163, strain P = A. nidulans ATCC 38163, read-out: MIC
[17] = Aspergillus terreus, read-out: MIC
[18] = Cryptococcus neoformans, strain M = C. neoformans ATCC MYA-895, read-out: MIC

Row | SMILES | MIC ([1]; strain I = C. krusei ATCC 6258) [μg/mL^−1] | MIC [2, 8] [μg/mL^−1] | MIC [3, 9] [μg/mL^−1] | MIC [4] [μg/mL^−1] | MIC [5, 10] [μg/mL^−1] | MIC [6] [μg/mL^−1] | MIC [7, 11] [μg/mL^−1] | MIC [1, 12] [µg/mL] | MIC [2, 13] [µg/mL] | MIC [3, 14] [µg/mL] | MIC [4, 15] [µg/mL] | MIC [5, 16] [µg/mL] | MIC [6, 17] [µg/mL] | MIC [7, 18] [µg/mL] | MIC ([7]; against strain M) [j·tg mL^−1] | MIC ([1]; against strain I) [j·tg mL^−1]
1 | O=C(NNc1cccc(F)c1)c1cccc(F)n1 [Compound 5a] | 0.24 | 31.3 | 7.8 | >31.3 | 0.98 | 1.95 | ≤0.06 | – | – | – | – | – | – | – | – | –
2 | O=C(NNc1ccc(F)cc1)c1cnccn1 [Compound 9d] | – | – | – | – | – | – | – | 0.49 (≈ 2.11 µM) | 3.9 (≈ 16.8 µM) | 3.9 (≈ 16.8 µM) | 15.6 (≈ 67.2 µM) | 0.49 (≈ 2.11 µM) | 1.95 (≈ 8.4 µM) | 0.24 (≈ 1.03 µM) | – | –
3 | COc1cccc(NNC(=O)c2ccccn2)c1 [Compound 2c] | 0.49 | 13.6 | 3.9 | >31.3 | 1.95 | 3.9 | 0.24 | – | – | – | – | – | – | – | – | –
4 | COc1ccc(NNC(=O)c2ccccn2)cc1 [Compound 2f] | – | – | – | – | – | – | – | 0.49 (≈ 2.01 µM) | 0.98 (≈ 4.03 µM) | 3.9 (≈ 16 µM) | > 31.3 | 0.49 (≈ 2.01 µM) | 31.3 (≈ 129 µM) | 0.49 (≈ 2.01 µM) | – | –
5 | O=C(NNc1ccc(Cl)cc1)c1ccc(F)cn1 [Compound 3e] | 0.98 | 7.8 | 31.3 | >31.3 | 15.6 | >31.3 | 3.9 | – | – | – | – | – | – | – | – | –
6 | O=C(NNc1ccc(F)cc1)c1nc(F)ccc1F [Compound 8d] | – | – | – | – | – | – | – | 0.24 (≈ 0.898 µM) | 15.6 (≈ 58.4 µM) | 7.8 (≈ 29.2 µM) | 7.8 (≈ 29.2 µM) | 0.49 (≈ 1.83 µM) | 1.95 (≈ 7.3 µM) | 0.49 (≈ 1.83 µM) | – | –
7 | O=C(NNc1cc(Cl)cc(Cl)c1)c1ccccn1 [Compound 2j] | – | – | – | – | – | – | – | 0.98 (≈ 3.47 µM) | 7.8 (≈ 27.6 µM) | 1.95 (≈ 6.91 µM) | > 31.3 | 0.49 (≈ 1.74 µM) | 1.95 (≈ 6.91 µM) | 0.49 (≈ 1.74 µM) | – | –
8 | O=C(NNc1cccc(F)c1)c1cnccn1 [Compound 9a] | 0.49 | 7.8 | 3.9 | 15.6 | 0.98 | 0.98 | 0.12 | – | – | – | – | – | – | – | – | –
9 | COc1cccc(NNC(=O)c2cnccn2)c1 [Compound 9c] | – | – | – | – | – | – | – | 0.49 (≈ 2.01 µM) | 7.8 (≈ 31.9 µM) | 1.95 (≈ 7.98 µM) | > 31.3 | 1.95 (≈ 7.98 µM) | 1.95 (≈ 7.98 µM) | 0.49 (≈ 2.01 µM) | – | –
10 | COc1ccc(NNC(=O)c2ccc(F)cc2F)cc1 [Compound 1f] | – | – | – | – | – | – | – | 0.98 (≈ 3.52 µM) | 3.9 (≈ 14 µM) | 7.8 (≈ 28 µM) | > 31.3 | 1.95 (≈ 7.01 µM) | 31.3 (≈ 112 µM) | 0.98 (≈ 3.52 µM) | – | –
11 | O=C(NNc1cc(F)ccc1F)c1ccc(F)cc1F [Compound 1h] | – | – | – | – | – | – | – | 3.9 (≈ 13.7 µM) | > 31.3 | 31.3 (≈ 110 µM) | 15.6 (≈ 54.9 µM) | 3.9 (≈ 13.7 µM) | > 31.3 | 0.98 (≈ 3.45 µM) | 0.98 | –
12 | O=C(NNc1ccc(Cl)cc1)c1nc(F)ccc1F [Compound 8e] | 3.9 | 3.9 | 15.6 | >31.3 | 7.8 | >31.3 | 1.95 | – | – | – | – | – | – | – | – | –
13 | O=C(NNc1cc(F)cc(F)c1)c1ccc(F)cc1F [Compound 1i] | – | – | – | – | – | – | – | 1.95 (≈ 6.86 µM) | > 31.3 | 15.6 (≈ 54.9 µM) | > 31.3 | 7.8 (≈ 27.4 µM) | > 31.3 | 0.49 (≈ 1.72 µM) | 0.49 | 1.95
14 | O=C(NNc1ccc(Cl)cc1)c1cccc(F)n1 [Compound 5e] | 1.95 | 3.9 | 15.6 | >31.3 | 7.8 | 31.3 | 1.95 | – | – | – | – | – | – | – | – | –
15 | O=C(NNc1cccc(Cl)c1)c1cnccn1 [Compound 9b] | – | – | – | – | – | – | – | 0.24 (≈ 0.965 µM) | 3.9 (≈ 15.7 µM) | 1.95 (≈ 7.84 µM) | > 31.3 | 0.98 (≈ 3.94 µM) | 0.98 (≈ 3.94 µM) | 0.24 (≈ 0.965 µM) | – | –
16 | O=C(NNc1ccc(F)cc1F)c1ccccn1 [Compound 2g] | – | – | – | – | – | – | – | 0.49 (≈ 1.97 µM) | 0.98 (≈ 3.93 µM) | 1.95 (≈ 7.82 µM) | 15.6 (≈ 62.6 µM) | 0.49 (≈ 1.97 µM) | 0.98 (≈ 3.93 µM) | 0.24 (≈ 0.963 µM) | – | –
17 | O=C(NNc1cc(F)cc(F)c1)c1cnccn1 [Compound 9i] | – | – | – | – | – | – | – | 0.49 (≈ 1.96 µM) | 7.8 (≈ 31.2 µM) | 3.9 (≈ 15.6 µM) | 3.9 (≈ 15.6 µM) | 1.95 (≈ 7.79 µM) | 1.95 (≈ 7.79 µM) | 0.24 (≈ 0.959 µM) | – | –
18 | COc1cccc(NNC(=O)c2nc(F)ccc2F)c1 [Compound 8c] | – | – | – | – | – | – | – | 15.6 (≈ 55.9 µM) | 15.6 (≈ 55.9 µM) | 7.8 (≈ 27.9 µM) | > 31.3 | 7.8 (≈ 27.9 µM) | 31.3 (≈ 112 µM) | 7.8 (≈ 27.9 µM) | – | –
19 | O=C(NNc1ccc(F)cc1F)c1ccc(Br)cn1 [Compound 4g] | – | – | – | – | – | – | – | 0.49 (≈ 1.49 µM) | 7.8 (≈ 23.8 µM) | 3.9 (≈ 11.9 µM) | > 31.3 | 3.9 (≈ 11.9 µM) | 3.9 (≈ 11.9 µM) | 1.95 (≈ 5.94 µM) | – | –
20 | C[C@@H]1[C@H](O)[C@@H](C)/C=C/C=C/C=C/C=C/C=C/C=C/C=C/[C@H](O[C@@H]2O[C@H](C)[C@@H](O)[C@H](N)[C@@H]2O)C[C@@H]2O[C@](O)(C[C@@H](O)C[C@@H](O)[C@H](O)CC[C@@H](O)C[C@@H](O)CC(=O)O[C@H]1C)C[C@H](O)[C@H]2C(=O)O [AmB, amphotericin B, reference compound] | 0.98 | 0.98 | 0.98 | 31.3 | 15.6 | 3.9 | 7.8 | – | – | – | – | – | – | – | – | –
21 | O=C(NNc1cc(F)ccc1F)c1ccccn1 [Compound 2h] | – | – | – | – | – | – | – | 0.24 (≈ 0.963 µM) | 3.9 (≈ 15.6 µM) | 3.9 (≈ 15.6 µM) | 3.9 (≈ 15.6 µM) | 0.49 (≈ 1.97 µM) | 0.98 (≈ 3.93 µM) | 0.49 (≈ 1.97 µM) | – | –
22 | O=C(NNc1cccc(F)c1)c1ncc(F)cc1F [Compound 7a] | 0.24 | 31.3 | 1.95 | >31.3 | 0.98 | 3.9 | ≤0.06 | – | – | – | – | – | – | – | – | –
23 | O=C(NNc1ccc(Cl)cc1)c1ccc(F)cc1F [Compound 1e] | 15.6 | 3.9 | 31.3 | >31.3 | 31.3 | 31.3 | 1.95 | – | – | – | – | – | – | – | – | –
24 | O=C(NNc1cccc(F)c1)c1ccc(F)cc1F [Compound 1a] | 1.95 | 7.8 | 3.9 | >31.3 | 3.9 | 3.9 | 1.95 | – | – | – | – | – | – | – | – | –
25 | COc1ccc(NNC(=O)c2ccc(Br)cn2)cc1 [Compound 4f] | – | – | – | – | – | – | – | 0.98 (≈ 3.04 µM) | 1.95 (≈ 6.05 µM) | 3.9 (≈ 12.1 µM) | > 31.3 | 15.6 (≈ 48.4 µM) | 7.8 (≈ 24.2 µM) | 1.95 (≈ 6.05 µM) | – | –
26 | COc1ccc(NNC(=O)c2cccc(F)n2)cc1 [Compound 5f] | – | – | – | – | – | – | – | 0.49 (≈ 1.88 µM) | 0.98 (≈ 3.75 µM) | 7.8 (≈ 29.9 µM) | > 31.3 | 1.95 (≈ 7.46 µM) | 15.6 (≈ 59.7 µM) | 0.24 (≈ 0.919 µM) | – | –
27 | COc1ccc(NNC(=O)c2nc(F)ccc2F)cc1 [Compound 8f] | – | – | – | – | – | – | – | 0.98 (≈ 3.51 µM) | 7.8 (≈ 27.9 µM) | 7.8 (≈ 27.9 µM) | > 31.3 | 1.95 (≈ 6.98 µM) | 31.3 (≈ 112 µM) | 0.98 (≈ 3.51 µM) | – | –
